Measurements published in publication PMC11108815 (Heliyon, 2024).
Marks after values point to notes of the source that are not given here.

Key:
[1] = Pharmacokinetics in rat plasma; type: in vivo, Wistar rats; conditions: for AUC(0-inf): AUC0-∞; for CL/F: CLz/F; for MRT last: MRT0-t; for MRT inf: MRT0-∞
[2] = rats, oral, 12.5 to 50 mg kg^−1; cited from earlier work
[3] = Stability test of QC samples; type: physicochemical, rat
[4] = Wistar, rat, plasma, po, 100 mg/kg, FS-C: normal (blank) rats, oral FS 100 mg kg^−1, n = 6
[5] = Wistar, rat, plasma, po, 100 mg/kg, FT-C: normal (blank) rats, oral FT 100 mg kg^−1, n = 6
[6] = Store at 4 °C for 24 h, high concentration QC sample in rat plasma
[7] = Store at 4 °C for 24 h, low concentration QC sample in rat plasma
[8] = Store at 4 °C for 24 h, medium concentration QC sample in rat plasma
[9] = Store at room temperature for 12 h, high concentration QC sample in rat plasma
[10] = Store at room temperature for 12 h, low concentration QC sample in rat plasma
[11] = Store at room temperature for 12 h, medium concentration QC sample in rat plasma
[12] = Store at −20 °C for 20 days, high concentration QC sample in rat plasma
[13] = Store at −20 °C for 20 days, low concentration QC sample in rat plasma
[14] = Store at −20 °C for 20 days, medium concentration QC sample in rat plasma
[15] = Three freeze-thaw cycles, high concentration QC sample in rat plasma
[16] = Three freeze-thaw cycles, low concentration QC sample in rat plasma
[17] = Three freeze-thaw cycles, medium concentration QC sample in rat plasma
[18] = FS-C: normal (blank) rats, oral FS 100 mg kg^−1, n = 6
[19] = FS-M: microcirculation dysfunction model rats, oral FS 100 mg kg^−1, n = 6
[20] = FT-C: normal (blank) rats, oral FT 100 mg kg^−1, n = 6
[21] = FT-M: microcirculation dysfunction model rats, oral FT 100 mg kg^−1, n = 6

Question: With `O=C(/C=C/c1ccc(O)c(O)c1)O[C@H](Cc1ccc(O)c(O)c1)C(=O)O` [Rosmarinic acid] as the compound, how does the AUC(0-t) ([1]; Wistar, rat, plasma, po, 100 mg/kg, AUC0-t, FS-C: normal (blank) rats, oral FS 100 mg kg^−1, n = 6) read?
Answer: 218 ± 14.9 ng·h/mL

Question: And the AUC(0-t) ([1]; Wistar, rat, plasma, po, 100 mg/kg, AUC0-t, FT-C: normal (blank) rats, oral FT 100 mg kg^−1, n = 6)?
Answer: 104 ± 17.2 ng·h/mL

Question: And the AUC(0-inf) [1, 4]?
Answer: 222 ± 20.6 ng·h/mL

Question: What about the AUC(0-inf) [1, 5] of the same compound?
Answer: 109 ± 28.6 ng·h/mL

Question: And the CL/F [1, 4]?
Answer: 2060 mL/min/kg

Question: And the CL/F [1, 5]?
Answer: 3430 mL/min/kg

Question: What about the Cmax ([1]; Wistar, rat, plasma, po, 100 mg/kg, Cmax, FS-C: normal (blank) rats, oral FS 100 mg kg^−1, n = 6) of the same compound?
Answer: 54.5 ± 5.34 ng/mL

Question: And the Cmax ([1]; Wistar, rat, plasma, po, 100 mg/kg, Cmax, FT-C: normal (blank) rats, oral FT 100 mg kg^−1, n = 6)?
Answer: 16.4 ± 4.28 ng/mL

Question: And the MRT last [1, 4]?
Answer: 5.01 ± 0.38 h

Question: And the MRT last [1, 5]?
Answer: 7.95 ± 1.33 h

Question: What about the MRT inf [1, 4] of the same compound?
Answer: 5.48 ± 1.41 h

Question: And the MRT inf [1, 5]?
Answer: 8.82 ± 3.43 h

Question: What about the half-life ([1]; Wistar, rat, plasma, po, 100 mg/kg, T1/2, FS-C: normal (blank) rats, oral FS 100 mg kg^−1, n = 6) of the same compound?
Answer: 2.42 ± 2.5 h

Question: What about the half-life ([1]; Wistar, rat, plasma, po, 100 mg/kg, T1/2, FT-C: normal (blank) rats, oral FT 100 mg kg^−1, n = 6) of the same compound?
Answer: 2.91 ± 3.72 h

Question: And the Tmax ([1]; Wistar, rat, plasma, po, 100 mg/kg, Tmax, FS-C: normal (blank) rats, oral FS 100 mg kg^−1, n = 6)?
Answer: 0.39 ± 0.09 h

Question: And the Tmax ([1]; Wistar, rat, plasma, po, 100 mg/kg, Tmax, FT-C: normal (blank) rats, oral FT 100 mg kg^−1, n = 6)?
Answer: 0.22 ± 0.09 h

Question: And the Tmax ([1]; Wistar, rat, plasma, po, 100 mg/kg, Tmax, control group, after oral administration of FS or FT)?
Answer: < 0.39 h

Question: And the “MRT0-t after oral FT compared with the FS group” value ([1]; both before and after modeling)?
Answer: increased

Question: And the “CLz/F in FT compared with FS” value ([1]; normal group, p < 0.01)?
Answer: higher

Question: And the “AUC0-t in FT compared with FS” value ([1]; normal group, p < 0.01, 0.05)?
Answer: significantly lower

Question: And the “AUC0-∞ in FT compared with FS” value ([1]; normal group, p < 0.01, 0.05)?
Answer: significantly lower

Question: What about the “Cmax in FT compared with FS” value ([1]; normal group, p < 0.01, 0.05) of the same compound?
Answer: significantly lower

Question: And the “Cmax after modeling compared with control group” value ([1]; oral administration of FS)?
Answer: increased

Question: What about the pharmacokinetic characteristics [2] of the same compound?
Answer: fast absorption, moderate elimination and low absolute bioavailability

Question: What about the “Stability, Accuracy (RE, %)” value [3, 6] of the same compound?
Answer: 5.57%

Question: And the “Stability, Accuracy (RE, %)” value [3, 7]?
Answer: −6.18%

Question: And the “Stability, Accuracy (RE, %)” value [3, 8]?
Answer: 0.63%

Question: And the “Stability, Accuracy (RE, %)” value [3, 9]?
Answer: −10.92%

Question: And the “Stability, Accuracy (RE, %)” value [3, 10]?
Answer: −3.95%

Question: And the “Stability, Accuracy (RE, %)” value [3, 11]?
Answer: −0.80%

Question: And the “Stability, Accuracy (RE, %)” value [3, 12]?
Answer: 0.99%

Question: What about the “Stability, Accuracy (RE, %)” value [3, 13] of the same compound?
Answer: 1.19%

Question: And the “Stability, Accuracy (RE, %)” value [3, 14]?
Answer: 6.02%

Question: And the “Stability, Accuracy (RE, %)” value [3, 15]?
Answer: −4.84%

Question: And the “Stability, Accuracy (RE, %)” value [3, 16]?
Answer: 1.82%

Question: What about the “Stability, Accuracy (RE, %)” value [3, 17] of the same compound?
Answer: −0.56%

Question: Which “AUC0-∞” value [1, 18] does the source give for `O=C(/C=C/c1ccc(O)c2oc(-c3ccc(O)c(O)c3)cc12)O[C@H](Cc1ccc(O)c(O)c1)C(=O)O` [Salvianolic acid C] here?
Answer: 33.09 ± 32.59 ng·h/mL

Question: What about the AUC(0-t) [1, 18] of the same compound?
Answer: 30.14 ± 25.77 ng·h/mL

Question: What about the CLz/F [1, 18] of the same compound?
Answer: 1061 ± 557.5 mL/min/kg

Question: What about the Cmax [1, 18] of the same compound?
Answer: 11.01 ± 2.17 ng/mL

Question: What about the MRT0-t [1, 18] of the same compound?
Answer: 3.65 ± 4.31 h

Question: And the “MRT0-∞” value [1, 18]?
Answer: 4.61 ± 6.46 h

Question: What about the T1/2 [1, 18] of the same compound?
Answer: 7.30 ± 4.55 h

Question: What about the Tmax [1, 18] of the same compound?
Answer: 0.67 ± 0.26 h

Question: And the “AUC0-∞” value [1, 19]?
Answer: 55.32 ± 49.60 ng·h/mL

Question: And the AUC(0-t) [1, 19]?
Answer: 39.25 ± 24.96 ng·h/mL

Question: What about the CLz/F [1, 19] of the same compound?
Answer: 689.2 ± 416.2 mL/min/kg

Question: What about the Cmax [1, 19] of the same compound?
Answer: 11.09 ± 3.14 ng/mL

Question: And the MRT0-t [1, 19]?
Answer: 4.52 ± 4.05 h

Question: What about the “MRT0-∞” value [1, 19] of the same compound?
Answer: 10.25 ± 12.88 h

Question: What about the T1/2 [1, 19] of the same compound?
Answer: 8.45 ± 8.99 h

Question: And the Tmax [1, 19]?
Answer: 0.75 ± 0.27 h

Question: What about the “AUC0-∞” value [1, 20] of the same compound?
Answer: 30.07 ± 23.22 ng·h/mL

Question: And the AUC(0-t) [1, 20]?
Answer: 29.34 ± 21.99 ng·h/mL

Question: What about the CLz/F [1, 20] of the same compound?
Answer: 1134 ± 771.3 mL/min/kg

Question: And the Cmax [1, 20]?
Answer: 7.05 ± 1.64 ^b μg·L^−1

Question: And the MRT0-t [1, 20]?
Answer: 4.27 ± 3.46 h

Question: And the “MRT0-∞” value [1, 20]?
Answer: 4.55 ± 3.95 h

Question: What about the T1/2 [1, 20] of the same compound?
Answer: 3.31 ± 1.82 h

Question: And the Tmax [1, 20]?
Answer: 0.28 ± 0.14 ^b h

Question: What about the “AUC0-∞” value [1, 21] of the same compound?
Answer: 40.99 ± 46.75 ng·h/mL

Question: What about the AUC(0-t) [1, 21] of the same compound?
Answer: 29.64 ± 22.98 ng·h/mL

Question: What about the CLz/F [1, 21] of the same compound?
Answer: 1061 ± 726.2 mL/min/kg

Question: What about the Cmax [1, 21] of the same compound?
Answer: 8.95 ± 6.01 ng/mL

Question: What about the MRT0-t [1, 21] of the same compound?
Answer: 3.90 ± 3.23 h

Question: And the “MRT0-∞” value [1, 21]?
Answer: 8.76 ± 14.72 h

Question: And the T1/2 [1, 21]?
Answer: 10.67 ± 9.80 h

Question: And the Tmax [1, 21]?
Answer: 1.22 ± 0.66 ^f h

Question: What about the “Cmax in FT compared with FS” value ([1]; normal group, p < 0.01, 0.05) of the same compound?
Answer: significantly lower

Question: And the “Stability, Accuracy (RE, %)” value [3, 6]?
Answer: 7.30%

Question: What about the “Stability, Accuracy (RE, %)” value [3, 7] of the same compound?
Answer: −9.02%

Question: And the “Stability, Accuracy (RE, %)” value [3, 8]?
Answer: −3.01%

Question: What about the “Stability, Accuracy (RE, %)” value [3, 9] of the same compound?
Answer: −13.32%

Question: What about the “Stability, Accuracy (RE, %)” value [3, 10] of the same compound?
Answer: 4.15%

Question: What about the “Stability, Accuracy (RE, %)” value [3, 11] of the same compound?
Answer: 1.94%

Question: What about the “Stability, Accuracy (RE, %)” value [3, 12] of the same compound?
Answer: −1.60%

Question: And the “Stability, Accuracy (RE, %)” value [3, 13]?
Answer: −1.94%

Question: And the “Stability, Accuracy (RE, %)” value [3, 14]?
Answer: 4.74%

Question: And the “Stability, Accuracy (RE, %)” value [3, 15]?
Answer: −3.54%

Question: What about the “Stability, Accuracy (RE, %)” value [3, 16] of the same compound?
Answer: −5.18%

Question: What about the “Stability, Accuracy (RE, %)” value [3, 17] of the same compound?
Answer: 7.92%
